Source: US10045977B2, “Use of nalmefene in non-alcoholic steatohepatitis” (TAIWANJ PHARMACEUTICALS CO., LTD., priority 2016, dated 2018)

Legend:
STAM model of NASH = test: In vivo efficacy study in STAM model of NASH; parameters: Steatosis score / Inflammation score / Ballooning score: scale not given here; details: for NAS (NAFLD Activity Score) compared with the Vehicle group, in words: HE-stained liver sections; for NAS (NAFLD Activity Score) compared with the Vehicle group, in words / Fibrosis area (Sirius red-positive area) compared with the Vehicle group: week 9; for Fibrosis area (Sirius red-positive area) compared with the Vehicle group: Sirius red-stained liver sections; for Ballooning score / Inflammation score / NAS (NAFLD activity score) / Steatosis score: mean ± SEM, twice daily from 6 to 9 weeks of age, Telmisartan 10 mg/kg oral, nalmefene/naltrexone 5 mg/kg s.c.
Source text: FIG. 3 sets out representative photomicrographs of HE-stained sections of livers from STAM model of NASH. Sections were cut from paraffin blocks of liver tissue prefixed in Bouin's solution and stained with Lillie-Mayer's Hematoxylin and eosin solution.
To visualize collagen deposition, Bouin's-fixed left lateral liver sections were stained using picro-Sirius red solution (Waldeck, Germany). b) For quantitative analysis of fibrosis area, bright field images of Sirius red-stained sections were captured around the central vein using a digital camera (DFC295; Leica, Germany) at 200-fold magnification, and the positive areas in 5 fields/section were measured using ImageJ software (National Institute of Health, USA). Individual values and mean±SEM for each treatment group are presented.
General Procedure NASH was induced in male C57BL/6 mice by a single subcutaneous injection of 200 μg streptozotocin solution 2 days after birth and feeding with high fat diet (HFD, 57 kcal % fat, Cat# HFD32, CLEA Japan, Japan) after 4 weeks of age. The animals were divided into groups of six each and were orally administered vehicle (1% Tween80) at 10 mL/kg or Telmisartan at 10 mg/kg twice daily from 6 to 9 weeks of age. […] The animals were sacrificed at week 9.

[1] = test system: p38 MAP kinase phosphorylation in Kupffer cells; test: LPS-induced p38 MAP kinase phosphorylation in Kupffer cells; type: cell-based, rat; details: Compound A 100 ng/mL; 5 and 20 min; n=3 replicates; FIG. 2
[2] = test system: MCD diet fatty liver rats given E coli endotoxin (LPS); test: Methionine-choline-deficient (MCD) diet rat model with LPS second hit; type: in vivo, Sprague Dawley rats; details: 6 h after LPS 2 mg/kg IP, n=3, not statistically significant
[3] = test system: MCD diet fatty liver rats given E coli endotoxin (LPS); test: as above; type: in vivo, Sprague Dawley rats; details: for Prevention of liver injury following LPS in fatty liver rats: 0-30 mg/kg oral, FIG. 5; for Serum ALT change, in words: 6 h after LPS, p<0.05
Description: 20 Sprague Dawley rats were administered with Compound A by oral gavage once daily at 0, 5, 10, 20 or 30 mg/kg (4 rats/group) for 4 weeks. All animals were fed a methionine/choline deficient (MCD) diet (from Dyets, Inc) five times per week during the feeding period in order to produce a diet-induced fatty liver. Rats were weighed daily as well as food intake. At the end of four weeks, the rats were administered 2 mg/kg E coli endotoxin (LPS) IP and 6 hours later the rats were euthanized and liver tissue and serum collected. Liver and was harvested at time of death as was blood. Histology samples were also taken.

Kupffer cells = test: LPS-stimulated release of TNF-α in Kupffer cells; type: cell-based, rat; details: E. coli LPS; supernatant TNF-α at 2, 4, 6 hours; FIG. 1
Description: Kupffer cells were isolated by enzymatic digestion and purified by centrifugal elutriation from normal rats and cultured overnight. They were then stimulated with E. coli LPS either without or with Compound A added to the medium. TNF-α content in the supernatant was measured at 2, 4, and 6 hours.

In the case of O=C1CC[C@@]2(O)C3Cc4ccc(O)c5c4C2(CCN3CC2CC2)C1O5 (stereo in doubt) [Compound B, 17-cyclopropylmethyl-4,5α-epoxy-6-oxomorphinan-3,14-diol], the “NAS (NAFLD Activity Score) compared with the Vehicle group, in words” value (“NAS … compared with the Vehicle group, in words” for short) (STAM model of NASH) was “significant decreases”, the “Fibrosis area (Sirius red-positive area) compared with the Vehicle group” value (from here on “Fibrosis area … compared with the Vehicle group”) (STAM model of NASH) was “significantly decreased” and the Ballooning score (STAM model of NASH) was 0.00 ± 0.00. The Inflammation score (STAM model of NASH) was 1.67 ± 0.33, the “NAS (NAFLD activity score)” value (STAM model of NASH) was 2.17 ± 0.40 and the Steatosis score (STAM model of NASH) was 0.50 ± 0.22.

CCCc1nc2c(C)cc(-c3nc4ccccc4n3C)cc2n1Cc1ccc(-c2ccccc2C(=O)O)cc1 [Telmisartan] was tested, and the “Mean body weight during the treatment period” value (STAM model of NASH; 6 to 9 weeks of age) was “gradually decreased”, the “NAS … compared with the Vehicle group, in words” value (STAM model of NASH) was “significant decreases” and the “Fibrosis area … compared with the Vehicle group” value (STAM model of NASH) was “significantly decreased”. The Ballooning score (STAM model of NASH) was 1.00 ± 0.26, the Inflammation score (STAM model of NASH) was 1.17 ± 0.48 and the “NAS (NAFLD activity score)” value (STAM model of NASH) was 2.67 ± 0.56. For the same molecule, the Steatosis score (STAM model of NASH) was 0.50 ± 0.22.

With C=C1CC[C@@]2(O)C3Cc4ccc(O)c5c4C2(CCN3CC2CC2)C1O5 (stereo in doubt) [Compound A, 17-cyclopropylmethyl-4,5α-epoxy-6-methylenemorphinan-3,14-diol] the “LPS-induced p38 MAP kinase phosphorylation” value [1] was “reduced”, the “Decrease of elevated serum ALT levels” value ([2]; 5 mg/kg oral once daily 4 weeks) was about 50% and the “Decrease of elevated serum ALT levels” value ([2]; 10 mg/kg oral once daily 4 weeks) was about 50%. The “Mortality during the treatment period” value (STAM model of NASH; 5 mg/kg s.c. twice daily, before week 9) was “one out of six mice was found dead”, the “NAS … compared with the Vehicle group, in words” value (STAM model of NASH) was “tended to show decrease” and the “Fibrosis area … compared with the Vehicle group” value (STAM model of NASH) was “tended to shown decrease”. The Ballooning score (STAM model of NASH) was 0.40 ± 0.24, the Inflammation score (STAM model of NASH) was 1.80 ± 0.20 and the “NAS (NAFLD activity score)” value (STAM model of NASH) was 3.00 ± 0.63. For the same molecule, the Steatosis score (STAM model of NASH) was 0.80 ± 0.49, the “Prevention of liver injury following LPS in fatty liver rats” value [3] was “dose-dependent prevention of liver injury” and the “Prevention of liver injury following LPS in fatty liver rats” value ([3]; listed as Nalmefene) was “demonstrated efficacy in preventing inflammatory liver damage”. The “Serum ALT change, in words” value ([3]; 20 mg/kg oral once daily 4 weeks) was “further decrease that was significant”, the “Serum ALT” value ([3]; 30 mg/kg oral once daily 4 weeks, 6 h after LPS 2 mg/kg IP) was 94.9+/−5.5 U/L and the “Serum ALT change, in words” value ([3]; 30 mg/kg oral once daily 4 weeks) was “further decrease that was significant”. The Liver histopathology finding ([3]; MCD and Compound A treated rats, FIG. 7) was “slight periportal chronic inflammation (mild nonspecific chronic hepatitis)”, the Liver histopathology finding ([3]; MCD+LPS+Compound A treated rats, FIG. 7) was “slight periportal chronic inflammation” and the “Hepatic fat accumulation (histopathology)” value ([3]; treated rats compared to control, FIG. 7) was “prevents hepatic fat accumulation”. For the same molecule, the “LPS/time-dependent increase in TNF-α released by Kupffer cells” value (Kupffer cells) was “inhibited”.
